Here are results for 19 compounds from US9346815B2, “5-chloro-2-difluoromethoxyphenyl pyrazolopyrimidine compounds, compositions and methods of use thereof” (Genentech, Inc., priority 2014, dated 2016).

Structures are written as SMILES.

Experiment [1] has as its system JAK1-dependent STAT6 phosphorylation downstream of IL-13 stimulation in BEAS-2B human bronchial epithelial cells. As to the kind of experiment: JAK1 pathway assay in BEAS-2B cells (IL-13-pSTAT6, MSD). The class given is cell-based. The conditions noted are these: read-out: IL13-pSTAT6 EC50 (uM)_BEAS-2B. In a few lines:
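BEAS-2B: complete growth medium, compound 1 hr at 37° C. TF-1: GM-CSF-starved overnight, serum-free OptiMEM, compound 30 min.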

In experiment [2] the target is isolated recombinant JAK2 kinase domain (Homo sapiens (Human), UniProt O60674). As to the kind of experiment: JAK2 enzyme assay (Caliper LabChip, peptide phosphorylation). The experiment is classed as biochemical. Conditions: 25 μM ATP.
Chain of isolated recombinant JAK2 kinase domain (O60674 849-1124): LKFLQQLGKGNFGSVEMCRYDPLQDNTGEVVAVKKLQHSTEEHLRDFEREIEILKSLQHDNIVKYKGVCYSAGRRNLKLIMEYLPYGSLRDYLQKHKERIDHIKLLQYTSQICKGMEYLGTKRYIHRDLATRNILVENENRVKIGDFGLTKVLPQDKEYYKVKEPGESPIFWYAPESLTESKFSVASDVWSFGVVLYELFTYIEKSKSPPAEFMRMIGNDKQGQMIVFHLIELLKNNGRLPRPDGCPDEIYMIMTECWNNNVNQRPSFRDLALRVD
Experiment [3] addresses isolated recombinant JAK1 kinase domain (Homo sapiens (Human), UniProt P23458). The experiment can be described thus: JAK1 enzyme assay (Caliper LabChip, peptide phosphorylation). The class given is biochemical. Conditions: isolated recombinant JAK1 kinase domain, 25 μM ATP.

Chain of isolated recombinant JAK1 kinase domain (P23458 875-1153): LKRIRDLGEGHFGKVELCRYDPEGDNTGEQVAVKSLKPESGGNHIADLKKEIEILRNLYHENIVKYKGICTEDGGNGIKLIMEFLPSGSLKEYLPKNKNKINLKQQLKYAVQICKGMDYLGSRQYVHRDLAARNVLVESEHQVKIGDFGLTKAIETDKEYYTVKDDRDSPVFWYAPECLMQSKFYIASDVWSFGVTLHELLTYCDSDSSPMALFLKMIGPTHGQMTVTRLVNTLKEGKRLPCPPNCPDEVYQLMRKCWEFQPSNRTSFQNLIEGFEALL

Take `CNC(=O)[C@@H]1CCCN1C1CCN(C(=O)Cn2cc(NC(=O)c3cnn4cccnc34)c(-c3cc(Cl)ccc3OC(F)F)n2)CC1` [Example 426, N-(3-(5-chloro-2-(difluoromethoxy)phenyl)-1-(2-(4-((S)-2-(methyl-carbamoyl)pyrrolidin-1-yl)piperidin-1-yl)-2-oxoethyl)-1H-pyrazol-4-yl)pyrazolo[1,5-a]pyrimidine-3-carboxamide]: the EC50 in experiment [1] came out at 0.0394 µM. Also, the inhibitory constant (Ki) turned out to be 1.25 nM in experiment [2] and 0.53 nM in experiment [3].
As to `CN(C)C(=O)CN1CCN(CC2CCN(C(=O)Cn3cc(NC(=O)c4cnn5cccnc45)c(-c4cc(Cl)ccc4OC(F)F)n3)CC2)CC1` [Example 427, N-(3-(5-chloro-2-(difluoromethoxy)phenyl)-1-(2-(4-((4-(2-(dimethylamino)-2-oxoethyl)piperazin-1-yl)methyl)piperidin-1-yl)-2-oxoethyl)-1H-pyrazol-4-yl)pyrazolo[1,5-a]pyrimidine-3-carboxamide], the concentration giving a half-maximal response (EC50) in experiment [1] amounted to 0.0224 µM. Also, the results for the inhibitory constant (Ki) in experiment [2] and in experiment [3] were 1.25 nM and 0.42 nM, respectively.
Taken in the same sequence, the figures for `CN(C)C(=O)CN1CCC(CN2CCN(C(=O)Cn3cc(NC(=O)c4cnn5cccnc45)c(-c4cc(Cl)ccc4OC(F)F)n3)CC2)CC1` [Example 428, N-(3-(5-chloro-2-(difluoromethoxy)phenyl)-1-(2-(4-((1-(2-(dimethylamino)-2-oxoethyl)piperidin-4-yl)methyl)piperazin-1-yl)-2-oxoethyl)-1H-pyrazol-4-yl)pyrazolo[1,5-a]pyrimidine-3-carboxamide] were 0.0453 µM, 2.51 nM and 0.79 nM.
Taken in the same sequence, the figures for `O=C(Nc1cn(CC(=O)N2CCN(C3CCOCC3)CC2)nc1-c1cc(Cl)ccc1OC(F)F)c1cnn2cccnc12` [Example 429, N-(3-(5-chloro-2-(difluoromethoxy)phenyl)-1-(2-oxo-2-(4-(tetrahydro-2H-pyran-4-yl)piperazin-1-yl)ethyl)-1H-pyrazol-4-yl)pyrazolo[1,5-a]pyrimidine-3-carboxamide] were 0.0074 µM, 0.99 nM and 0.48 nM.
The corresponding values for `CN1CCC2CN(C(=O)Cn3cc(NC(=O)c4cnn5cccnc45)c(-c4cc(Cl)ccc4OC(F)F)n3)CC21` (stereo not drawn) [Example 430, N-(3-(5-chloro-2-(difluoromethoxy)phenyl)-1-(2-(1-methyl-hexahydropyrrolo[3,4-b]pyrrol-5(1H)-yl)-2-oxoethyl)-1H-pyrazol-4-yl)pyrazolo[1,5-a]pyrimidine-3-carboxamide] are 0.0058 µM, 0.77 nM and 0.51 nM.
As for `CN(C1CCN(C(=O)Cn2cc(NC(=O)c3cnn4cccnc34)c(-c3cc(Cl)ccc3OC(F)F)n2)CC1)C1(C#N)CC1` [Example 431, N-(3-(5-chloro-2-(difluoromethoxy)phenyl)-1-(2-(4-((1-cyanocyclopropyl)(methyl)amino)piperidin-1-yl)-2-oxoethyl)-1H-pyrazol-4-yl)pyrazolo[1,5-a]pyrimidine-3-carboxamide], the EC50 in experiment [1] stood at 0.0029 µM. Further, the Ki in experiment [2] came to 0.74 nM; in experiment [3], 0.29 nM.
The corresponding values for `CN(CC1OCCO1)C1CCN(C(=O)Cn2cc(NC(=O)c3cnn4cccnc34)c(-c3cc(Cl)ccc3OC(F)F)n2)CC1` [Example 433, N-(1-(2-(4-(((1,3-dioxolan-2-yl)methyl)(methyl)amino)piperidin-1-yl)-2-oxoethyl)-3-(5-chloro-2-(difluoromethoxy)phenyl)-1H-pyrazol-4-yl)pyrazolo[1,5-a]pyrimidine-3-carboxamide] are 0.036 µM, 1.16 nM and 0.42 nM.
Taken in the same sequence, the figures for `O=C(Nc1cn(CC(=O)N2CCC(N3CCSCC3)CC2)nc1-c1cc(Cl)ccc1OC(F)F)c1cnn2cccnc12` [Example 434, N-(3-(5-chloro-2-(difluoromethoxy)phenyl)-1-(2-oxo-2-(4-thiomorpholinopiperidin-1-yl)ethyl)-1H-pyrazol-4-yl)pyrazolo[1,5-a]pyrimidine-3-carboxamide] were 0.0187 µM, 0.67 nM and 0.31 nM.
On to `CN(CC1(CC#N)CC1)C1CCN(C(=O)Cn2cc(NC(=O)c3cnn4cccnc34)c(-c3cc(Cl)ccc3OC(F)F)n2)CC1` [Example 435, N-(3-(5-chloro-2-(difluoromethoxy)phenyl)-1-(2-(4-(((1-(cyanomethyl)cyclopropyl)methyl)(methyl)amino)piperidin-1-yl)-2-oxoethyl)-1H-pyrazol-4-yl)pyrazolo[1,5-a]pyrimidine-3-carboxamide], for which the EC50 in experiment [1] came out at 0.0074 µM. The figures for the inhibitory constant (Ki) in experiment [2] and in experiment [3] were 0.98 nM and 0.34 nM, respectively.
With `N#CC1(NC2CCN(C(=O)Cn3cc(NC(=O)c4cnn5cccnc45)c(-c4cc(Cl)ccc4OC(F)F)n3)CC2)CC1` [Example 436, N-(3-(5-chloro-2-(difluoromethoxy)phenyl)-1-(2-(4-(1-cyanocyclo-propylamino)piperidin-1-yl)-2-oxoethyl)-1H-pyrazol-4-yl)pyrazolo[1,5-a]pyrimidine-3-carboxamide], in experiment [1], the EC50 is 0.0103 µM. In addition, the results for the inhibition constant (Ki) in experiment [2] and in experiment [3] were 0.75 nM and 0.25 nM, respectively.
Taken in the same sequence, the figures for `O=C(Nc1cn(CC(=O)N2CCN(C3CCOC3)CC2)nc1-c1cc(Cl)ccc1OC(F)F)c1cnn2cccnc12` (stereo not drawn) [Example 437, N-(3-(5-chloro-2-(difluoromethoxy)phenyl)-1-(2-oxo-2-(4-(tetrahydrofuran-3-yl)piperazin-1-yl)ethyl)-1H-pyrazol-4-yl)pyrazolo[1,5-a]pyrimidine-3-carboxamide] were 0.0126 µM, 0.88 nM and 0.38 nM.
The corresponding values for `O=C(Nc1cn(CC(=O)N2CC3CCCNC3C2)nc1-c1cc(Cl)ccc1OC(F)F)c1cnn2cccnc12` (stereo not drawn) [Example 439, N-(3-(5-chloro-2-(difluoromethoxy)phenyl)-1-(2-(octahydropyrrolo[3,4-b]pyridin-6-yl)-2-oxoethyl)-1H-pyrazol-4-yl)pyrazolo[1,5-a]pyrimidine-3-carboxamide] are 0.0353 µM, 0.78 nM and 0.71 nM.
Taken in the same sequence, the figures for `CN1CCCC2CN(C(=O)Cn3cc(NC(=O)c4cnn5cccnc45)c(-c4cc(Cl)ccc4OC(F)F)n3)CC21` (stereo not drawn) [Example 440, N-(3-(5-chloro-2-(difluoromethoxy)phenyl)-1-(2-(1-methyl-octahydropyrrolo[3,4-b]pyridin-6-yl)-2-oxoethyl)-1H-pyrazol-4-yl)pyrazolo[1,5-a]pyrimidine-3-carboxamide] were 0.0068 µM, 0.54 nM and 0.46 nM.
With `O=C(Nc1cn(CC(=O)N2CCC(N3CCCOCC3)CC2)nc1-c1cc(Cl)ccc1OC(F)F)c1cnn2cccnc12` [Example 441, N-(1-(2-(4-(1,4-oxazepan-4-yl)piperidin-1-yl)-2-oxoethyl)-3-(5-chloro-2-(difluoromethoxy)phenyl)-1H-pyrazol-4-yl)pyrazolo[1,5-a]pyrimidine-3-carboxamide], the 50% effective concentration (EC50) in experiment [1] was 0.0084 µM. Moreover, the inhibition constant (Ki) in experiment [2] amounted to 1.48 nM; in experiment [3], 0.52 nM.
The corresponding values for `O=C(Nc1cn(CC(=O)N2C[C@@H]3CCN[C@@H]3C2)nc1-c1cc(Cl)ccc1OC(F)F)c1cnn2cccnc12` [Example 444, N-(3-(5-chloro-2-(difluoromethoxy)phenyl)-1-(2-((3aS,6aS)-hexahydropyrrolo[3,4-b]pyrrol-5(1H)-yl)-2-oxoethyl)-1H-pyrazol-4-yl)pyrazolo[1,5-a]pyrimidine-3-carboxamide] are 0.054 µM, 0.89 nM and 0.76 nM.
The corresponding values for `O=C(Nc1cn(CC(=O)N2CCC(N3CCNCC3=O)CC2)nc1-c1cc(Cl)ccc1OC(F)F)c1cnn2cccnc12` [Example 445, N-(3-(5-chloro-2-(difluoromethoxy)phenyl)-1-(2-oxo-2-(4-(2-oxopiperazin-1-yl)piperidin-1-yl)ethyl)-1H-pyrazol-4-yl)pyrazolo[1,5-a]pyrimidine-3-carboxamide] are 0.3 µM, 0.87 nM and 0.35 nM.
Regarding `N#CC1CN(C2CCN(C(=O)Cn3cc(NC(=O)c4cnn5cccnc45)c(-c4cc(Cl)ccc4OC(F)F)n3)CC2)C1` [Example 446, N-(3-(5-chloro-2-(difluoromethoxy)phenyl)-1-(2-(4-(3-cyanoazetidin-1-yl)piperidin-1-yl)-2-oxoethyl)-1H-pyrazol-4-yl)pyrazolo[1,5-a]pyrimidine-3-carboxamide], in experiment [1], the EC50 stood at 0.0121 µM. The Ki in experiment [2] came out at 1.3 nM; in experiment [3], 0.45 nM.
As for `O=C(Nc1cn(CC(=O)N2CCC(N3C[C@@H]4C[C@H]3CO4)CC2)nc1-c1cc(Cl)ccc1OC(F)F)c1cnn2cccnc12` [Example 447, N-(1-(2-(4-((1S,4S)-5-oxa-2-aza-bicyclo[2.2.1]heptan-2-yl)piperidin-1-yl)-2-oxoethyl)-3-(5-chloro-2-(difluoromethoxy)phenyl)-1H-pyrazol-4-yl)pyrazolo[1,5-a]pyrimidine-3-carboxamide], the EC50 in experiment [1] stood at 0.0161 µM. In addition, the Ki in experiment [2] is 1.25 nM; in experiment [3], 0.49 nM.
Taken in the same sequence, the figures for `CN1CCN(C2CCN(C(=O)Cn3cc(NC(=O)c4cnn5cccnc45)c(-c4cc(Cl)ccc4OC(F)F)n3)CC2)C(=O)C1` [Example 448, N-(3-(5-chloro-2-(difluoromethoxy)phenyl)-1-(2-(4-(4-methyl-2-oxopiperazin-1-yl)piperidin-1-yl)-2-oxoethyl)-1H-pyrazol-4-yl)pyrazolo[1,5-a]pyrimidine-3-carboxamide] were 0.0425 µM, 0.88 nM and 0.36 nM.
